Experimental data: ChEMBL document CHEMBL1141309, “Isoechinulin-type alkaloids, variecolorins A-L, from halotolerant Aspergillus variecolor” (J Nat Prod, 2007)

Experiments:
[1] = DPPH radical scavenging activity; format: functional
P388 = assay: Cytotoxicity against mouse P388 cells after 72 hrs by MTT assay; format: functional, cell-based; conditions: P388, 72 h
HL-60 = assay: Cytotoxicity against human HL60 cells after 72 hrs by MTT assay; format: functional, cell-based; conditions: HL-60, 72 h
Bel-7402 = assay: Cytotoxicity against human BEL-7402 cells after 24 hrs by SRB assay; format: functional, cell-based; conditions: Bel-7402, 24 h
[2] = Cytotoxicity against human […] cells after 24 hrs by SRB assay; format: functional, cell-based

Row | Compound | IC50 [1] | IC50 (P388) | IC50 (HL-60) | IC50 (Bel-7402) | IC50 [2]
1 | C=CC(C)(C)c1[nH]c2ccccc2c1C[C@@H]1NC(=O)[C@H](C)NC1=O [PREECHINULIN] | 1000 µM |  |  |  | 
2 | C=CC(C)(C)c1[nH]c2ccc(C[C@@H](O)C(=C)C)cc2c1/C=C1\NC(=O)[C@H](C)NC1=O [VARIECOLORIN C] | 75 µM | > 50 µM | > 50 µM | > 50 µM | > 50 µM
3 | C=CC(C)(C)c1[nH]c2c(CC=C(C)C)cccc2c1C[C@@H]1NC(=O)[C@H](C)NC1=O [TARDIOXOPIPERAZINE B] | 899 µM |  |  |  | 
4 | C=CC(C)(C)c1[nH]c2ccc(CC(=O)C(C)C)cc2c1/C=C1\NC(=O)[C@H](C)NC1=O [VARIECOLORIN E] | 79 µM | > 50 µM | > 50 µM | > 50 µM | > 50 µM
5 | C=CC(C)(C)c1[nH]c2ccc(CC=C(C)C)cc2c1/C=C1\NC(=O)C(=O)NC1=O [VARIECOLORIN J] | 102 µM | > 50 µM | > 50 µM | > 50 µM | > 50 µM
6 | C=CC(C)(C)c1[nH]c2ccc(C[C@@H](O)C(C)(C)Cl)cc2c1/C=C1\NC(=O)[C@H](C)NC1=O [VARIECOLORIN A] | 79 µM | > 50 µM | > 50 µM | > 50 µM | > 50 µM
7 | C=CC(C)(C)c1[nH]c2c(C[C@@H](O)C(C)(C)Cl)cccc2c1/C=C1\NC(=O)[C@H](C)NC1=O [VARIECOLORIN F] | 77 µM | > 50 µM | > 50 µM | > 50 µM | > 50 µM
8 | C=CC(C)(C)c1[nH]c2ccc(CC=C(C)C)cc2c1C[C@@H]1NC(=O)[C@H](C)NC1=O [TARDIOXOPIPERAZINE A] | 912 µM |  |  |  | 
9 | C=CC(C)(C)c1[nH]c2ccc(C[C@@H](Cl)C(C)(C)O)cc2c1/C=C1\NC(=O)[C@H](C)NC1=O [VARIECOLORIN B] | 97 µM | > 50 µM | > 50 µM | > 50 µM | > 50 µM
10 | C=CC(C)(C)c1[nH]c2ccc(CC=C(C)C)c(CC=C(C)C)c2c1C[C@@H]1NC(=O)[C@H](C)NC1=O [VARIECOLORIN L] | 623 µM | > 50 µM | > 50 µM | > 50 µM | > 50 µM
11 | C=CC(C)(C)c1[nH]c2ccccc2c1/C=C1\NC(=O)C(C)(OC)NC1=O (stereo unspecified) [VARIECOLORIN H] | 99 µM | > 50 µM | > 50 µM | > 50 µM | > 50 µM
12 | CC(=O)O[C@H]1C(=O)[C@@]2(C)[C@H]([C@H](OC(=O)c3ccccc3)[C@]3(O)C[C@H](OC(=O)[C@H](O)[C@@H](NC(=O)c4ccccc4)c4ccccc4)C(C)=C1C3(C)C)[C@]1(OC(C)=O)CO[C@@H]1C[C@@H]2O [PACLITAXEL] |  | 0.93 µM | 0.93 µM | 0.93 µM | 0.93 µM
13 | C=CC(C)(C)c1[nH]c2ccc(CC=C(C)C)cc2c1/C=C1\NC(=O)[C@H](C)NC1=O [ISOECHINULIN A] | 98 µM |  |  |  | 
14 | C=CC(C)(C)c1[nH]c2cc3c(cc2c1/C=C1\NC(=O)[C@H](C)NC1=O)C[C@H](C(C)(C)O)OC3(C)C [VARIECOLORIN K] | 89 µM | > 50 µM | > 50 µM | > 50 µM | > 50 µM
15 | C=CC(C)(C)c1[nH]c2ccc(C[C@H]3OC(C)(C)OC3(C)C)cc2c1/C=C1\NC(=O)[C@H](C)NC1=O [VARIECOLORIN D] | 88 µM | > 50 µM | > 50 µM | > 50 µM | > 50 µM
16 | C=CC(C)(C)c1[nH]c2ccccc2c1/C=c1\[nH]c(=O)c(=C)[nH]c1=O [NEOECHINULIN B] | 65 µM |  |  |  | 
17 | O=C1O[C@H]([C@@H](O)CO)C(O)=C1O [ASCORBIC ACID] | 22 µM |  |  |  | 
18 | C=CC(C)(C)c1[nH]c2c(CC=C(C)C)cc(CC=C(C)C)cc2c1C[C@@H]1NC(=O)[C@H](C)NC1=O [ECHINULIN] | 569 µM |  |  |  | 
19 | C=CC(C)(C)c1[nH]c2c(CC=C(C)C)cccc2c1/C=C1\NC(=O)[C@H](C)NC1=O [VARIECOLORIN G] | 86 µM | > 50 µM | > 50 µM | > 50 µM | > 50 µM
20 | C=CC(C)(C)c1[nH]c2ccc(CC=C(C)C)cc2c1/C=C1\NC(=O)C(C)(OC)NC1=O (stereo unspecified) [VARIECOLORIN I] | 79 µM | > 50 µM | > 50 µM | > 50 µM | > 50 µM
